Results: the supplement of paper PMC4862054

Columns and labels:
MDA-MB-453 [1] = settings: 72 h
Summary of the method: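 Compound dissolved in 5 µl medium was placed in 384-well plates before 20 µl of breast cancer cell suspension was added, and the plates were incubated for 72 h. Cells then received 2.5 µl CellTiter-Blue for 2 h at 37 °C, and fluorescence was read at 560/590 nm. EC50 values come from percent-inhibition dose-response fits that were censored at the highest concentration, with plates normalised to vehicle and a positive kill control and rows with a zero drug sensitivity score excluded.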

BT-474 [2] = test: normalised viability (% of control), CellTiter-Blue; higher = more viable cells (about 100 = DMSO control); settings: 10000 nM; incubation time: 72 h
Summary of the method: (§1)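 The reported quantity is normalised viability at a single listed concentration of the series. Compound in 5 µl medium was pre-dispensed into 384-well plates and 20 µl of breast cancer cell suspension was added for 72 h. A 2 h, 37 °C CellTiter-Blue step (2.5 µl) preceded fluorescence reading at 560/590 nm, and plates were normalised to vehicle (100) and a positive kill control (0).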

CAL-148 [3] = test: as above; settings: 100 nM; incubation time: 72 h
Summary of the method: as §1

CAL-85-1 [4] = test: as above; settings: 100 nM; incubation time: 72 h
Summary of the method: as §1

HCC1599 [5] = test: as above; settings: 10000 nM; incubation time: 72 h
Summary of the method: as §1

Hs578T [6] = test: as above; settings: 10000 nM; incubation time: 72 h
Summary of the method: as §1

MDA-MB-231 [7] = test: as above; settings: 10000 nM; incubation time: 72 h
Summary of the method: as §1

MDA-MB-468 [8] = test: as above; settings: 10000 nM; incubation time: 72 h
Summary of the method: as §1

CAL-148 [9] = test: as above; settings: 3 nM; incubation time: 72 h
Summary of the method: as §1

CAL-85-1 [10] = test: as above; settings: 3 nM; incubation time: 72 h
Summary of the method: as §1

HCC1143 [11] = test: as above; settings: 10 nM; incubation time: 72 h
Summary of the method: as §1

SK-BR-3 [12] = test: as above; settings: 10 nM; incubation time: 72 h
Summary of the method: as §1

BT-474 [13] = test: normalised viability (% of control), CellTiter-Blue; higher = more viable cells (100 = DMSO, 0 = benzethonium chloride kill control); settings: 1 nM; incubation time: 72 h
Description: (§2)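 DSRT, CellTiter-Blue viability, 72 h incubation. Signal is normalised to DMSO and benzethonium chloride controls. Value is the normalised response at dose 1.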

BT-549 = test: as above; settings: 1 nM; incubation time: 72 h
Description: as §2

CAL-120 = test: as above; settings: 1 nM; incubation time: 72 h
Description: as §2

CAL-148 [14] = test: as above; settings: 1 nM; incubation time: 72 h
Description: as §2

CAL-51 = test: as above; settings: 1 nM; incubation time: 72 h
Description: as §2

CAL-85-1 [15] = test: as above; settings: 1 nM; incubation time: 72 h
Description: as §2

DU-4475 = test: as above; settings: 1 nM; incubation time: 72 h
Description: as §2

HCC1143 [16] = test: as above; settings: 1 nM; incubation time: 72 h
Description: as §2

HCC1599 [17] = test: as above; settings: 1 nM; incubation time: 72 h
Description: as §2

HCC1937 = test: as above; settings: 1 nM; incubation time: 72 h
Description: as §2

HDQ-P1 = test: as above; settings: 1 nM; incubation time: 72 h
Description: as §2

Hs578T [18] = test: as above; settings: 1 nM; incubation time: 72 h
Description: as §2

MDA-MB-231 [19] = test: as above; settings: 1 nM; incubation time: 72 h
Description: as §2

MDA-MB-436 = test: as above; settings: 1 nM; incubation time: 72 h
Description: as §2

MDA-MB-453 [20] = test: as above; settings: 1 nM; incubation time: 72 h
Description: as §2

MDA-MB-468 [21] = test: as above; settings: 1 nM; incubation time: 72 h
Description: as §2

MFM-223 = test: as above; settings: 1 nM; incubation time: 72 h
Description: as §2

SK-BR-3 [22] = test: as above; settings: 1 nM; incubation time: 72 h
Description: as §2

Compound	EC50, CellTiter-Blue viability (MDA-MB-453 [1])	normalised viability (BT-474 [2])	normalised viability (CAL-148 [3])	normalised viability (CAL-85-1 [4])	normalised viability (HCC1599 [5])	normalised viability (Hs578T [6])	normalised viability (MDA-MB-231 [7])	normalised viability (MDA-MB-468 [8])	normalised viability (CAL-148 [9])	normalised viability (CAL-85-1 [10])	normalised viability (HCC1143 [11])	normalised viability (SK-BR-3 [12])	normalised viability (BT-474 [13])	normalised viability (BT-549)	normalised viability (CAL-120)	normalised viability (CAL-148 [14])	normalised viability (CAL-51)	normalised viability (CAL-85-1 [15])	normalised viability (DU-4475)	normalised viability (HCC1143 [16])	normalised viability (HCC1599 [17])	normalised viability (HCC1937)	normalised viability (HDQ-P1)	normalised viability (Hs578T [18])	normalised viability (MDA-MB-231 [19])	normalised viability (MDA-MB-436)	normalised viability (MDA-MB-453 [20])	normalised viability (MDA-MB-468 [21])	normalised viability (MFM-223)	normalised viability (SK-BR-3 [22])
Cn1cncc1[C@@](N)(c1ccc(Cl)cc1)c1ccc2c(c1)c(-c1cccc(Cl)c1)cc(=O)n2C [Tipifarnib]	1430 nM	45%	45.6%	76.8%	51.7%	39.3%	48.8%	26.4%	92.2%	81.4%	71.9%	91%	92.1%	120%	78%	102%	98.4%	81.1%	104%	85.6%	90.4%	89%	105%	93.2%	98.8%	98.5%	94.7%	105%	87.6%	92.5%
CCCCCCCCc1ccc(CCC(N)(CO)CO)cc1 [Fingolimod]	5400 nM	2.28%	87%	96.6%	128%	2.92%	0.68%	0.62%	85.7%	92.2%	80.8%	106%	97.7%	106%	82.3%	96.8%	117%	85.8%	122%	92.5%	105%	96.5%	130%	97.6%	95.6%	113%	94%	106%	94%	102%
CN1CCN(CCOc2cc(OC3CCOCC3)c3c(Nc4c(Cl)ccc5c4OCO5)ncnc3c2)CC1 [Saracatinib]	2540 nM	42.4%	85.3%	98%	83.7%	69.7%	60.6%	57.8%	77.1%	85.5%	88%	99.6%	93.9%	89.4%	82.4%	89.8%	106%	88.7%	107%	80.9%	97.2%	99.4%	113%	107%	85.5%	122%	105%	104%	105%	91.5%
